The values that follow come from paper PMC6896158, “Enzymatic Characterization of Wild-Type and Mutant Janus Kinase 1” (Cancers, 2019).

Read-outs that look alike come from different tables or passages of the source.

In one experiment the target is T1, JAK1 (Homo sapiens, UniProt P23458).
T1 construct: full length, 25-1154; His tag (TEV-cleavable) (N, cleaved yes); made in house; host or cells: Sf21 insect cells (baculovirus)
Description: Steady-state kinetics, kinase activity assay (KM for ATP and STAT5b peptide). The experiment is classed as biochemical. As to conditions: 6 mM peptide substrate, read-out: KM, app (ATP).

A further experiment has as its target JAK1 constructs (Homo sapiens, UniProt P23458). Description: Thermal shift assay (SYPRO orange). The conditions noted are these: all constructs containing a kinase domain. The experiment is classed as binding. The procedure: To determine whether the V658F mutation affects protein stability we performed thermal shift assays on all the JAK constructs in the presence and absence of various cofactors that bind the kinase domain. SYPRO orange, which fluoresces when bound to hydrophobic residues, was added to a solution of protein and ligand. Fluorescence was measured as the temperature of the solution was increased, with increased fluorescence indicating the unfolding of the protein. The melting temperature (Tm) is represented by the inflection point of the fluorescence curve, with a higher Tm indicating greater thermal stability.
JAKs of 3–5 µg were diluted into the JAK Gel Filtration Buffer with 0.04× SYPRO orange, 4% (v/v) DMSO plus either 20 mM EDTA, 1 mM ATP and 2 mM MgCl2, or 6 µM itacitinib, and with or without 5 µM receptor peptide. The temperature was raised in 1 °C per min steps from 25 °C to 80 °C and fluorescence readings at 530 nm were taken at each interval. Sigmoidal curves were fitted to the fluorescence data to provide Tm values for each experiment.

Another experiment has as its target JAK1 V658F (Homo sapiens, UniProt P23458, V658F). Description: Kinase assay with titration of itacitinib (γ-32P-ATP, STAT5b peptide). It counts as biochemical. The conditions noted are these: V658F constructs (pseudokinase-kinase, full length); Ki=IC50/(1+S/KM). The procedure: (§1) To our knowledge, it is unknown whether small-molecule JAK inhibitors bind the wild-type and mutant forms of the enzyme with equal affinity. Therefore, the inhibition constant (Ki) for Itacitinib was determined. JAK1 activity was measured by kinase assay in the presence of increasing concentrations of Itacitinib.
(§2) The 10 µL reaction mix contained 0.5 µL 20× Kinase Assay Buffer, 1 µCi γ-^32P-ATP and varying concentrations of ATP, STAT5b peptide, and inhibitor, as described for each experiment. Reactions were started with the addition of 5 µL JAK solution, with concentration as described for each experiment. After incubation at room temperature for 20–60 min, a 3.5 µL reaction mix was spotted onto P81 phosphocellulose paper (Dr. J. Oakhill, SVIMR. Australia) and the paper was placed into 5% (v/v) H3PO4. Paper was washed 4 × 15 min with 100 mL 5% (v/v) H3PO4, followed by 1 × 1 min with acetone. Paper was dried and exposed to a phosphorimager plate overnight. The plate was scanned using a Typhoon FLA 7000 phosphorimager (GE Life Sciences, Chicago, IL, USA) and the incorporated radioactivity of each spot was quantitated using ImageQuant TL software (GE Life Sciences). The background radioactivity, quantified from an area of the paper without reaction mix, was subtracted from that for the experimental spots. […]

Experiment [1] deals with JAK1 (wild type constructs) (Homo sapiens, UniProt P23458). The description is as above. It counts as biochemical. The conditions noted are these: all wild type constructs (kinase domain, pseudokinase-kinase, full length); Ki=IC50/(1+S/KM). On the procedure: as §1, §2
Chain of JAK1 (wild type constructs) (P23458 862-1154 limits assumed): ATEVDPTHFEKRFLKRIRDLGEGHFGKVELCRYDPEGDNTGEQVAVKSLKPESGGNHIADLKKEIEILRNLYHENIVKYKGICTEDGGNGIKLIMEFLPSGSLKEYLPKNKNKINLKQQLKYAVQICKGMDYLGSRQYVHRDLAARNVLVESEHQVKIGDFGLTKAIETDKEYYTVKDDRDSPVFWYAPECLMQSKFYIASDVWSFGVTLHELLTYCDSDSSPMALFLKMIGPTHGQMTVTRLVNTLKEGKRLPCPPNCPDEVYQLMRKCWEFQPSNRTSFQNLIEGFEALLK
In a further experiment the target is T2, JAK1 FERM-SH2 domain (Homo sapiens, UniProt P23458).
T2 construct: FERM-SH2 domains, 25-559; His tag (TEV-cleavable) (N, cleaved yes); made in house; host or cells: Sf21 insect cells (baculovirus)
T2 sequence (P23458 25-559): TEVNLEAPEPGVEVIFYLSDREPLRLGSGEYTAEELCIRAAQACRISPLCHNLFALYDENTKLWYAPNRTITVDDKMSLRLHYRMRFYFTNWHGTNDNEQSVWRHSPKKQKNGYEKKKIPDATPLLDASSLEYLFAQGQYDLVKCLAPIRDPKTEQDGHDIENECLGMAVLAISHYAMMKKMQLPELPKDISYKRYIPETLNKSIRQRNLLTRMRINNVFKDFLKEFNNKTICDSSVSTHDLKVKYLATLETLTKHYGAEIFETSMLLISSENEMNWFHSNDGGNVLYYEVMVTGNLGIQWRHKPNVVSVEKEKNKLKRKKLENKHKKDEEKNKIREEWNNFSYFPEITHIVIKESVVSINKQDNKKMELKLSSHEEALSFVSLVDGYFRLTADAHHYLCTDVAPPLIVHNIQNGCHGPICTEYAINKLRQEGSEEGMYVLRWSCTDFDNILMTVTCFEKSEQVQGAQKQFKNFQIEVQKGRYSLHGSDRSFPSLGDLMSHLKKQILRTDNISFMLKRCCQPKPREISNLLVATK
Description: Isothermal titration calorimetry of IFNλR Box1/Box2 peptide binding. As to conditions: peptide of IFNλR Box1 and Box2 motifs (human residues K250 - T299). An excerpt: We considered the possibility that the pseudokinase and kinase domains of JAK may affect the binding of JAK to the cytokine receptor (either directly or allosterically), as well as the possibility that the V658F mutation might exert its oncogenic effect by influencing the interaction of JAK with receptor. […] We performed isothermal titration calorimetry (ITC) to determine the affinity of a peptide representing the IFNλR Box1 and Box2 motifs (human residues K250 - T299). […] However, there was no significant effect on receptor binding between the wild-type and mutant forms of the enzyme.
In general terms: In ITC the heat of successive injections is recorded.

In another experiment the test system is JAK1 wild-type and V658F. Description: Steady-state kinetics in the presence and absence of IFNλR peptide. It counts as biochemical, human. The conditions noted are these: 2 µM IFNλR peptide. The procedure:
Receptor-binding is an important regulator of the activity of JAK in vivo and may be required in order for the V658F mutation to induce constitutive activity. Although we cannot include full-length receptor constructs in these assays we were able to include a peptide fragment that represents the box1/2 motifs. Therefore, we performed steady-state kinetics using JAK1 wild-type and V658F in the presence and absence of saturating concentrations of the IFNλR peptide.
The 10 µL reaction mix contained 0.5 µL 20× Kinase Assay Buffer, 1 µCi γ-^32P-ATP and varying concentrations of ATP, STAT5b peptide, and inhibitor, as described for each experiment. Reactions were started with the addition of 5 µL JAK solution, with concentration as described for each experiment. After incubation at room temperature for 20–60 min, a 3.5 µL reaction mix was spotted onto P81 phosphocellulose paper (Dr. J. Oakhill, SVIMR. Australia) and the paper was placed into 5% (v/v) H3PO4. […] The plate was scanned using a Typhoon FLA 7000 phosphorimager (GE Life Sciences, Chicago, IL, USA) and the incorporated radioactivity of each spot was quantitated using ImageQuant TL software (GE Life Sciences). The background radioactivity, quantified from an area of the paper without reaction mix, was subtracted from that for the experimental spots.

The target in another experiment is IFNλR (Homo sapiens) (UniProt Q8IU57). The conditions noted are these: cited from earlier work.
Chain of IFNλR (Homo sapiens) (Q8IU57 21-520): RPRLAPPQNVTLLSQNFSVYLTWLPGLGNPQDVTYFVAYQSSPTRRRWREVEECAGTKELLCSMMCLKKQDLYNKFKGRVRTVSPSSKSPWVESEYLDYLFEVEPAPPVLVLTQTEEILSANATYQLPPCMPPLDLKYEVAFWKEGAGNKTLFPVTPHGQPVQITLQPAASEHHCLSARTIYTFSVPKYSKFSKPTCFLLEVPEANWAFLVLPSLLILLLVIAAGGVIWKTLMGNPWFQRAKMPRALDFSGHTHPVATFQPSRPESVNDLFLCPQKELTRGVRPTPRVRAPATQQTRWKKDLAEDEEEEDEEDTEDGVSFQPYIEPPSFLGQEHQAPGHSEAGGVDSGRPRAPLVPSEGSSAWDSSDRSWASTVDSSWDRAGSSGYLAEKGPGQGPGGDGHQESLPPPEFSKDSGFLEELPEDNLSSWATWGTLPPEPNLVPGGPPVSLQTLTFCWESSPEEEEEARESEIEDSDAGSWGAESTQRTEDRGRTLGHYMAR
A further experiment addresses T3, JAK1 FERM-SH2 domains (human, UniProt P23458 25-559).
T3 construct: human JAK1 FERM-SH2 domains, residues 25-559; source: Sf21 insect cells, baculovirus, purified (HisTrap, TEV cleavage, Superdex 200); not shown: His tag, N-terminal, cleaved
Description: ITC; IFNλR Box1/Box2 peptide binding to purified JAK1 constructs; three independent experiments; conditions not described in the methods. The conditions noted are these: both partners purified.

The target of experiment [2] is T4, full length wild type JAK1 (ΔN25) (human, UniProt P23458 25-1154).
T4 construct: human JAK1, the 'full length' construct, residues 25-1154 (the N-terminal residues deleted for expression); The results say the 25 N-terminal residues were deleted, the methods give 25-1154; also called FL WT; JAK1 FL WT; source: Sf21 insect cells, baculovirus, purified (HisTrap, TEV cleavage, Superdex 200); not shown: His tag, N-terminal, cleaved
T4 sequence (P23458 25-1154, stated change not applied): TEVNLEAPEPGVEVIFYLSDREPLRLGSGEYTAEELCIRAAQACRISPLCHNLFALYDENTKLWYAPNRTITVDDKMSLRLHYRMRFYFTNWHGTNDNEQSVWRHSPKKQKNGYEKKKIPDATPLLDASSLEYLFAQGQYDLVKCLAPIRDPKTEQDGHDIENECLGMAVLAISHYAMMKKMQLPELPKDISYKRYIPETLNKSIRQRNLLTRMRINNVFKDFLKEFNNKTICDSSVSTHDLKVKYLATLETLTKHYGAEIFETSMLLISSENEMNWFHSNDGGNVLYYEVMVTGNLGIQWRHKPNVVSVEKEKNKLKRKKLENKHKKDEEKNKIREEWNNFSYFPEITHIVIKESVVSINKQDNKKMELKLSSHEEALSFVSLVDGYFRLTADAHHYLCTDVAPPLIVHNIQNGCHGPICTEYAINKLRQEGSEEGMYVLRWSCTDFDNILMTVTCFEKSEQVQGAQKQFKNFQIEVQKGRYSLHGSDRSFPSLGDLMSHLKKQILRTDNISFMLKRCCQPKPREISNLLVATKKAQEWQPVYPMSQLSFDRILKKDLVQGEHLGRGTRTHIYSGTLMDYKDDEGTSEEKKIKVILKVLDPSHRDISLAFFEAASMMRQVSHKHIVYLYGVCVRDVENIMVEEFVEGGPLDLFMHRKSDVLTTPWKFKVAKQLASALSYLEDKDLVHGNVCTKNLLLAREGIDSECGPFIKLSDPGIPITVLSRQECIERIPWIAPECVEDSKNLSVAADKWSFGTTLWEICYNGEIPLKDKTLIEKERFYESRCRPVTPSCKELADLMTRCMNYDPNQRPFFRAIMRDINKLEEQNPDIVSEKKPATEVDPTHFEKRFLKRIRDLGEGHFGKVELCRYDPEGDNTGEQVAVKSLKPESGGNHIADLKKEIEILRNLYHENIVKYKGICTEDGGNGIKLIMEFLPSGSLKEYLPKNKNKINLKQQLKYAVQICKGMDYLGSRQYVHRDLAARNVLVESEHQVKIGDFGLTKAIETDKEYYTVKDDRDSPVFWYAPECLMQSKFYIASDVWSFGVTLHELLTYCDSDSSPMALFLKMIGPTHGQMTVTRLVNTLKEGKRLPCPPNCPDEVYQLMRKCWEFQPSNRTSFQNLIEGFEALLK
The description is as above. The conditions noted are these: both partners purified.

In experiment [3] the target is T5, full length JAK1 V658F (ΔN25) (human, UniProt P23458 25-1154, V658F).
T5 construct: human JAK1, the 'full length' construct, residues 25-1154, with the cancer-linked mutation V658F in the pseudokinase domain; also called FL V658F; JAK1 FL V658F; source: Sf21 insect cells, baculovirus, purified (HisTrap, TEV cleavage, Superdex 200); not shown: His tag, N-terminal, cleaved
T5 sequence (P23458 25-1154 V658F): as the sequence (P23458 25-1154, stated change not applied) above, with V634F counted along it
The description is as above. The conditions noted are these: both partners purified.

Chain of JAK1 constructs (P23458 862-1154 limits assumed): as the sequence (P23458 862-1154 limits assumed) above
T3 sequence (P23458 25-559): as the sequence (P23458 25-559) above
Chain of JAK1 wild-type and V658F (P23458 25-559 limits assumed, stated change not applied): as the sequence (P23458 25-559) above
Chain of JAK1 V658F (P23458 25-1154 V658F): as the sequence (P23458 25-1154, stated change not applied) above, with V634F counted along it

On to `Nc1ncnc2c1ncn2[C@@H]1O[C@H](COP(=O)(O)OP(=O)(O)OP(=O)(O)O)[C@@H](O)[C@H]1O` [ATP], for which the Km on JAK1 (full-length enzyme) came out at 25 µM; on JAK1 (kinase domain alone), 175 µM. In addition, at JAK1 constructs (1 mM ATP and 2 mM MgCl2, compared to EDTA), the Tm change entry was “increased Tm”.

In the case of `N#CCC1(n2cc(-c3ncnc4[nH]ccc34)cn2)CN(C2CCN(C(=O)c3ccnc(C(F)(F)F)c3F)CC2)C1` [itacitinib], the Ki (on JAK1 V658F; in experiment [1]) was 0.5 to 2 nM throughout. At JAK1 constructs (6 µM itacitinib, compared to ATP/Mg2+), the Tm change result is listed as “further Tm increase”.

Regarding “IFNλR peptide: peptide representing the IFNλR Box1 and Box2 motifs (human residues K250 - T299) (KTLMGNPWFQRAKMPRALDFSGHTHPVATFQPSRPESVNDLFLCPQKELT)”, the “affinity (ITC)” value with JAK1 FERM-SH2 domain is given as “near-identical affinity to that previously reported”. Further, in the experiment with JAK1 wild-type and V658F, the “effect on ATP KM or turnover rate” value is recorded as “no significant differences”.

As for JAK1 FERM-SH2 (from UniProt P23458), the Kd with IFNλR (Homo sapiens) was 71 nM.

B1: peptide representing the IFNλR Box1 and Box2 motifs (human residues K250 - T299) (peptide, UniProt Q8IU57 250-299, looked up)
peptide: KTLMGNPWFQRAKMPRALDFSGHTHPVATFQPSRPESVNDLFLCPQKELT
notes: human interferon-lambda receptor (IFNλR), intracellular Box1 and Box2 motifs, residues K250-T299; also called IFNλR peptide; interferon lambda box1-box2 peptide
As for B1, the binding result (with JAK1 FERM-SH2 domains; in experiment [2]; in experiment [3]) was “binds” each time.

As a reminder, the Km is the concentration of substrate that gives half-maximal velocity. One may read the Ki as a measure of affinity in units of concentration, obtained from inhibition or displacement. A lower Ki goes with a stronger hold on the target. In general, Kd refers to the free concentration of one partner at which half of the binding sites on the other are occupied at equilibrium, for simple one-to-one binding.
